BigSolDB 2.1

Nc1ccc(Cc2ccc(N)cc2)cc1
solubility (mole fraction)
Settings	293.15 K	298.15 K	303.15 K	308.15 K	313.15 K	318.15 K	323.15 K	328.15 K	333.15 K
in benzene	0.0207	0.0299	0.039	0.0499	0.066	0.0865	0.114	–	–
in chloroform	0.123	0.142	0.165	0.197	0.23	0.269	0.306	–	–
in ethanol	0.0335	0.0461	0.0637	0.0842	0.11	0.15	0.198	0.267	–
in isopropanol	0.011	0.0136	0.0178	0.0236	0.0312	0.0411	0.0536	0.0696	0.0898
in methanol	0.127	0.157	0.187	0.219	0.259	0.3	0.347	0.403	–
in n-butanol	0.0187	0.0231	0.0296	0.0371	0.0476	0.0582	0.0713	0.0885	0.108
in toluene	0.0156	0.0195	0.0244	0.03	0.038	0.0487	0.0599	0.075	0.0932
